{
  "source": "ChEMBL document CHEMBL1177733",
  "about": "“Mayamycin, a cytotoxic polyketide from a Streptomyces strain isolated from the marine sponge Halichondria panicea” (J Nat Prod, 2010)",
  "key": {"[1]": {"system": "Cutibacterium acnes", "assay": "Antibacterial activity against Propionibacterium acnes DSM 1897 after 48 hrs by microtiter plate assay", "format": "functional, organism-based", "details": "DSM 1897, 48 h"}, "[2]": {"system": "Pseudomonas aeruginosa", "assay": "Antibacterial activity against Pseudomonas aeruginosa DSM 50071 after 14-16 hrs by microtiter plate assay", "details": "DSM 50071, 14-16 h"}, "[3]": {"system": "Xanthomonas campestris", "assay": "Antibacterial activity against Xanthomonas campestris DSM 2405 after 14-16 hrs by microtiter plate assay", "details": "DSM 2405, 14-16 h"}, "[4]": {"system": "Bacillus subtilis", "assay": "Antibacterial activity against Bacillus subtilis DSM 347 after 14-16 hrs by microtiter plate assay", "details": "DSM 347, 14-16 h"}, "[5]": {"system": "Mammaliicoccus lentus", "assay": "Antibacterial activity against Staphylococcus lentus DSM 6672 after 14-16 hrs by microtiter plate assay", "details": "DSM 6672, 14-16 h"}, "[6]": {"assay": "Cytotoxicity against human RXF 486L cells by modified propidium iodide monolayer assay"}, "[7]": {"assay": "Cytotoxicity against human MAXF 401NL cells after 24 hrs by propidium iodide monolayer assay"}, "[8]": {"assay": "Cytotoxicity against human LXFL529 cells after 24 hrs by propidium iodide monolayer assay", "details": "LXFL 529, 24 h"}, "[9]": {"assay": "Cytotoxicity against human PAXF 1657L cells by modified propidium iodide monolayer assay"}, "[10]": {"assay": "Cytotoxicity against human GXF251L cells after 24 hrs by propidium iodide monolayer assay", "details": "GXF 251L"}, "[11]": {"assay": "Cytotoxicity against human MEXF 462NL cells by modified propidium iodide monolayer assay"}, "[12]": {"system": "Staphylococcus aureus", "assay": "Antibacterial activity against Staphylococcus aureus ATCC 12600 after 48 hrs by microtiter plate assay", "format": "functional, organism-based", "details": "ATCC 12600, 48 h"}, "[13]": {"system": "HT-29", "assay": "Cytotoxicity against human HT-29 cells after 24 hrs by CellTiter-BlueCell viability assay", "format": "functional, cell-based", "details": "HT-29, 24 h"}, "[14]": {"system": "Brevibacterium epidermidis", "assay": "Antibacterial activity against Brevibacterium epidermidis DSM 20660 after 14-16 hrs by microtiter plate assay", "details": "DSM 20660, 14-16 h"}, "[15]": {"system": "Dermabacter hominis", "assay": "Antibacterial activity against Dermabacter hominis DSM 7083 after 24 hrs by microtiter plate assay", "details": "DSM 7083, 24 h"}},
  "data": [
    {"smiles": "O=C(N[C@H](CO)[C@H](O)c1ccc([N+](=O)[O-])cc1)C(Cl)Cl", "note": "[CHLORAMPHENICOL]", "values": [
      {"measurement": "IC50", "setting": "[1]", "result": 1000, "unit": "nM"},
      {"measurement": "IC50", "setting": "[2]", "result": 27300, "unit": "nM"},
      {"measurement": "IC50", "setting": "[3]", "result": 3600, "unit": "nM"},
      {"measurement": "IC50", "setting": "[4]", "result": 9000, "unit": "nM"},
      {"measurement": "IC50", "setting": "[5]", "result": 2300, "unit": "nM"}
    ]},
    {"smiles": "COc1cccc2c1C(=O)c1c(O)c3c(c(O)c1C2=O)C[C@@](O)(C(=O)CO)C[C@@H]3O[C@H]1C[C@H](N)[C@H](O)[C@H](C)O1", "note": "[DOXORUBICIN]", "values": [
      {"measurement": "IC50", "setting": "[6]", "result": "≤ 52", "unit": "nM"},
      {"measurement": "IC50", "setting": "[7]", "result": "< 52", "unit": "nM"},
      {"measurement": "IC50", "setting": "[8]", "result": "< 52", "unit": "nM"},
      {"measurement": "IC50", "setting": "[9]", "result": "< 52", "unit": "nM"},
      {"measurement": "IC50", "setting": "[10]", "result": "< 52", "unit": "nM"},
      {"measurement": "IC50", "setting": "[11]", "result": "< 52", "unit": "nM"}
    ]},
    {"smiles": "COc1c(N2C[C@@H]3CCCN[C@@H]3C2)c(F)cc2c(=O)c(C(=O)O)cn(C3CC3)c12", "note": "[MOXIFLOXACIN]", "values": [
      {"measurement": "IC50", "setting": "[12]", "result": 7500, "unit": "nM"}
    ]},
    {"smiles": "CC/C(=C(\\c1ccccc1)c1ccc(OCCN(C)C)cc1)c1ccccc1", "note": "[TAMOXIFEN]", "values": [
      {"measurement": "IC50", "setting": "[13]", "result": 38600, "unit": "nM"}
    ]},
    {"smiles": "CN(C)[C@@H]1C(O)=C(C(N)=O)C(=O)[C@@]2(O)C(O)=C3C(=O)c4c(O)cccc4[C@@](C)(O)[C@H]3C[C@@H]12", "note": "[TETRACYCLINE]", "values": [
      {"measurement": "IC50", "setting": "[14]", "result": 13900, "unit": "nM"},
      {"measurement": "IC50", "setting": "[15]", "result": 1200, "unit": "nM"}
    ]}
  ]
}
